Measured values: PMC3462592 (Journal of medicinal chemistry, 2012)
Values after ≈ are worked out from the molar mass of the structure shown. Where two headings read alike, the source gives them in different places. Values belong to the compound of their own block, whether it stands above or below them.

Assays:
[1] = Aqueous solubility determination; type: physicochemical
[2] = Human liver microsome stability assay; type: in vitro ADME; details: for microsomal CLint at 1 μM: human, human liver microsomes, pH 7.4; for HLM t1/2: human liver microsomes 0.1 mg/mL, 1 μM compound, 37 °C, at least two experiments
HIV-1 NL4-3 (wild-type) = assay: microbe, parasite or virus in culture; type: cell-based; details: for EC50: Human immunodeficiency virus 1, NL43, TZM-bl; for SI (selectivity index): ratio CC50/EC50
[3] = In vitro cytotoxicity in TZM-bl cells; type: cell-based; details: human

microsomal CLint at 1 μM [2]: 40 µL/min/mg
SMILES: COC(=O)c1cc(N)c(Nc2ccc(C#N)cc2)cc1Oc1c(C)cc(CCC#N)cc1C [15c, 5-(4″-Cyanoethyl-2″,6″-dimethylphenoxy)-N^1-(4′-cyanophenyl)-4-methoxycarbonylbenzene-1,2-diamine]

microsomal CLint at 1 μM [2]: 160 µL/min/mg
SMILES: Cc1cc(CCC#N)cc(C)c1Oc1cc(Nc2ccc(C#N)cc2)c(N)cc1C(N)=O [15e, 4-Carbanoyl-N^1-(4′-cyanophenyl)-5-(4″-cyanoethyl-2″,6″-dimethylphenoxy)benzene-1,2-diamine]

microsomal CLint at 1 μM [2]: 120 µL/min/mg
SMILES: CNC(=O)c1cc(N)c(Nc2ccc(C#N)cc2)cc1Oc1c(C)cc(CCC#N)cc1C [15f, 5-(4″-Cyanoethyl-2″,6″-dimethylphenoxy)-N^1-(4′-cyanophenyl)-4-methylcarbanoylbenzene-1,2-diamine]

microsomal CLint at 1 μM [2]: 330 µL/min/mg
SMILES: Cc1cc(CCC#N)cc(C)c1Oc1cc(Nc2ccc(C#N)cc2)c(N)cc1CO [15h, 5-(4″-Cyanoethyl-2″,6″-dimethylphenoxy)-N^1-(4′-cyanophenyl)-4-hydroxymethylbenzene-1,2-diamine]

More lines, now with the values behind:

SMILES: Cc1cc(CO)cc(C)c1Oc1cc(Nc2ccc(C#N)cc2)c(N)cc1CO [13e, N^1-(4′-Cyanophenyl)-5-(2″,6″-dimethyl-4″-hydroxymethylphenoxy)-4-hydroxymethylbenzene-1,2-diamine]
solubility at 4 h ([1]; 0.01 M HCl, pH 2): 20.9 to 44.7 µg/mL (≈ 53.7 to 115 µM)

SMILES: Cc1cc(/C=C/C#N)cc(C)c1Oc1cc(Nc2ccc(C#N)cc2)c(N)cc1C(F)(F)F [14a, (E)-N^1-(4′-Cyanophenyl)-5-(4″-cyanovinyl-2″,6″-dimethylphenoxy)-4-trifluoromethylbenzene-1,2-diamine]
microsomal CLint at 1 μM [2]: 150 µL/min/mg

SMILES: COC(=O)c1cc(N)c(Nc2ccc(C#N)cc2)cc1Oc1c(C)cc(/C=C/C#N)cc1C [14c, (E)-N^1-(4′-Cyanophenyl)-5-(4″-cyanovinyl-2″,6″-dimethylphenoxy)-4-methoxycarbonylbenzene-1,2-diamine]
microsomal CLint at 1 μM [2]: 20 µL/min/mg | EC50 (HIV-1 NL4-3 (wild-type)): 2.74 nM | EC50 (HIV-1 NL4-3 (wild-type); read-out: EC50 NL4-3 (wt)): 2.74 ± 0.71 nM

SMILES: Cc1cc(/C=C/C#N)cc(C)c1Oc1cc(Nc2ccc(C#N)cc2)c(N)cc1C(=O)O [14d, (E)-4-Carboxy-N^1-(4′-cyanophenyl)-5-(4″-cyanovinyl-2″,6″-dimethylphenoxy)benzene-1,2-diamine]
EC50 (HIV-1 NL4-3 (wild-type); read-out: EC50 NL4-3 (wt)): 230 ± 38 nM

SMILES: Cc1cc(/C=C/C#N)cc(C)c1Oc1cc(Nc2ccc(C#N)cc2)c(N)cc1C(N)=O [14e, (E)-4-Carbamoyl-N^1-(4′-cyanophenyl)-5-(4″-cyanovinyl-2″,6″-dimethylphenoxy)benzene-1,2-diamine]
EC50 (HIV-1 NL4-3 (wild-type)): 0.87 nM | EC50 (HIV-1 NL4-3 (wild-type); read-out: EC50 NL4-3): 0.87 nM | EC50 (HIV-1 NL4-3 (wild-type); read-out: EC50 NL4-3 (wt)): 0.87 ± 0.28 nM

SMILES: CNC(=O)c1cc(N)c(Nc2ccc(C#N)cc2)cc1Oc1c(C)cc(/C=C/C#N)cc1C [14f, (E)-N^1-(4′-Cyanophenyl)-5-(4″-cyanovinyl-2″,6″-dimethylphenoxy)-4-methylcarbamoylbenzene-1,2-diamine]
microsomal CLint at 1 μM [2]: 150 µL/min/mg | EC50 (HIV-1 NL4-3 (wild-type)): 5.72 nM | EC50 (HIV-1 NL4-3 (wild-type); read-out: EC50 NL4-3 (wt)): 5.72 ± 0.94 nM

SMILES: Cc1cc(/C=C/C#N)cc(C)c1Oc1cc(Nc2ccc(C#N)cc2)c(N)cc1CO [14h, (E)-N^1-(4′-Cyanophenyl)-5-(4″-cyanovinyl-2″,6″-dimethylphenoxy)-4-hydroxymethylbenzene-1,2-diamine]
HLM t1/2 [2]: 30.2 min | EC50 (HIV-1 NL4-3 (wild-type)): 0.53 nM | EC50 (HIV-1 NL4-3 (wild-type); read-out: EC50 NL4-3): 0.53 nM | EC50 (HIV-1 NL4-3 (wild-type); read-out: EC50 NL4-3 (wt)): 0.53 ± 0.13 nM

SMILES: Cc1cc(CCC#N)cc(C)c1Oc1cc(Nc2ccc(C#N)cc2)c(N)cc1C(F)(F)F [15a, 5-(4″-Cyanoethyl-2″,6″-dimethylphenoxy)-N^1-(4′-cyanophenyl)-4-trifluoromethylbenzene-1,2-diamine]
microsomal CLint at 1 μM [2]: 120 µL/min/mg | solubility at 4 h ([1]; 0.01 M HCl, pH 2, Aqueous solubility pH 2.0, Table 4, pH 2.0, triplicate): 0.33 µg/mL (≈ 0.733 µM) | SI (selectivity index) (HIV-1 NL4-3 (wild-type); Table 1): > 6454

SMILES: Cc1cc(CCC#N)cc(C)c1Oc1cc(Nc2ccc(C#N)cc2)c(N)cc1N [15i, 5-(4″-Cyanoethyl-2″,6″-dimethyl)phenoxy-N^1-(4′-cyanophenyl)benzene-1,2,4-triamine]
SI (selectivity index) (HIV-1 NL4-3 (wild-type); Table 2): >3906

SMILES: Cc1cc(/C=C/C#N)cc(C)c1Nc1ccnc(Nc2ccc(C#N)cc2)n1 [compound 2, rilpivirine, reference compound]
HLM t1/2 [2]: 34.2 min | CC50 at 4 days [3]: 19400 nM

SMILES: Cc1cc(/C=C/C#N)cc(C)c1Oc1cc(Nc2ccc(C#N)cc2)c(N)cc1[N+](=O)[O-] [compound 3]
solubility at 4 h [1]: 0.29 µg/mL (≈ 0.682 µM)
